Here are results for 37 molecules from patent US9828339B2, “Biphenyl derivatives and methods for preparing same” (DONG-A ST CO., LTD, priority 2013, dated 2017).

What is called Ki is the equilibrium dissociation constant of an inhibitor or competing ligand from its target.

The test deals with human muscarinic M3 receptor (Homo sapiens (Human), UniProt P20309). The experiment in a line: Binding assay on human muscarinic M3 receptor ([3H]-methyl scopolamine displacement). To be noted: membranes overexpressing human M3 receptor, Ki from IC50 by Cheng-Prusoff, read-out: Binding Affinity to M3 Receptor, Ki. As for the experimental part: [Experimental Example 1] Binding Assay on Human Muscarinic M3 Receptor
Cell membrane proteins (Perkin Elmer) wherein human muscarinic M3 receptor was overexpressed, [^3H]-methyl scopolamine and test compounds in various concentration were cultured in 0.2 ml of Tris-HCl buffer at 25° C. for 120 minutes. The same was filtered under suction through glass fiber filter (Whatman GF/B), and then the filter was washed 5 times with 1 ml of Tris-HCl buffer. The radioactivity of [^3H]-methyl scopolamine adsorbed on the filter was measured by a liquid scintillation counter. Non-specific binding was evaluated under existence of 5 μM of atropine. Affinity of the compound of the present invention to muscarinic M3 receptor was calculated as the dissociation constant (Ki), which can be calculated from concentration (IC50) of test compounds inhibiting 50% of binding of [^3H]-methyl scopolamine (i.e. labeled ligand) according to Cheng and Prusoff [Cheng and Prusoff, Biochem. Pharmacol., 22, 3099, 1973].

human muscarinic M3 receptor, sequence (P20309 whole entry): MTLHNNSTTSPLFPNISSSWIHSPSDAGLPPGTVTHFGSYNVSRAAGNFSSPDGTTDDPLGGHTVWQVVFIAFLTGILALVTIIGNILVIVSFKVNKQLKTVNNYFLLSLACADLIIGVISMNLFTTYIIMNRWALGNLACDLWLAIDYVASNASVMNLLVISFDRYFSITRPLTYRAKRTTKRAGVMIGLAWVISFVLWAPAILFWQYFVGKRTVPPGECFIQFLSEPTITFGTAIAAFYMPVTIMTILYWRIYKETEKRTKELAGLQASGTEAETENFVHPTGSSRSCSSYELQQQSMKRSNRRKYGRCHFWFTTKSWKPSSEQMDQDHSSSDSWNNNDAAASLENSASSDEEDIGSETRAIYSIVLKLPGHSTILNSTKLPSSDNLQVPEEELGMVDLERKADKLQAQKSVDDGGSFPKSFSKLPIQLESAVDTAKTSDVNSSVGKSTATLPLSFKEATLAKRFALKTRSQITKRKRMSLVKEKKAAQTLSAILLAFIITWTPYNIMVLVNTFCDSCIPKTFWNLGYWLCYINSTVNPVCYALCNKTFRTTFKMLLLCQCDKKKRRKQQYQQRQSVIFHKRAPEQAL

As for `CN1CC[C@@H](COC(=O)Nc2ccccc2-c2cc(Cl)cc(C(F)(F)F)c2)C1` [Example 138, (R)-(1-methylpyrrolidin-3-yl)methyl(3′-chloro-5′-(trifluoromethyl)-[1,1′-biphenyl]-2-yl)carbamate], the Ki is above 1000 nM.

As to `COc1cc(Cl)cc(-c2cc(F)ccc2NC(=O)OC[C@@H]2CCN(C)C2)c1` [Example 139, (R)-(1-methylpyrrolidin-3-yl)methyl(3′-chloro-5-fluoro-5′-methoxy-[1,1′-biphenyl]-2-yl)carbamate], the Ki amounted to 82.7 nM. Regarding `CN1CC[C@@H](COC(=O)Nc2ccc(F)cc2-c2cc(Cl)cc(C(F)(F)F)c2)C1` [Example 140, (R)-(1-methylpyrrolidin-3-yl)methyl(3′-chloro-5-fluoro-5′-(trifluoromethyl)-[1,1′-biphenyl]-2-yl)carbamate], the Ki was above 1000 nM. As for `COc1ccc(NC(=O)OC[C@@H]2CCN(C)C2)c(-c2ccc(F)c(Cl)c2)c1` [Example 147, (R)-(1-methylpyrrolidin-3-yl)methyl(3′-chloro-4′-fluoro-5-methoxy-[1,1′-biphenyl]-2-yl)carbamate], the Ki was 77.4 nM. The value for `CN1CC[C@@H](COC(=O)Nc2ccccc2-c2cccc(CO)c2)C1` [Example 152, (R)-(1-methylpyrrolidin-3-yl)-methyl (3′-(hydroxymethyl)-[1,1′-biphenyl]-2-yl)carbamate] was 147 nM; that for `CN1CC[C@@H](COC(=O)Nc2ccccc2-c2cccc(C(N)=O)c2)C1` [Example 153, (R)-(1-methylpyrrolidin-3-yl)methyl(3′-carbamoyl-[1,1′-biphenyl]-2-yl)carbamate] was above 1000 nM.

As for `CN1CC[C@@H](COC(=O)Nc2ccccc2-c2cccc(N)c2)C1` [Example 154, (R)-(1-methylpyrrolidin-3-yl)methyl(3′-amino-[1,1′-biphenyl]-2-yl)carbamate], the Ki came to 16.7 nM. On to `CN1CC[C@@H](COC(=O)Nc2ccccc2-c2cccc(C#N)c2)C1` [Example 155, (R)-(1-methylpyrrolidin-3-yl)methyl(3′-cyano-[1,1′-biphenyl]-2-yl)carbamate], for which the Ki was above 1000 nM. With `CN1CC[C@@H](COC(=O)Nc2ccccc2-c2cccc(F)c2F)C1` [Example 158, (R)-(1-methylpyrrolidin-3-yl)methyl(2′,3′-difluoro-[1,1′-biphenyl]-2-yl)carbamate] the figure was 120 nM; with `CN1CCC[C@H]1COC(=O)Nc1ccccc1-c1cc(F)cc(F)c1` [Example 161, (S)-(1-methylpyrrolidin-2-yl)methyl(3′,5′-difluoro-[1,1′-biphenyl]-2-yl)carbamate], 8.92 nM; with `CN1CCC[C@H]1COC(=O)Nc1ccccc1-c1ccc(F)c(F)c1` [Example 162, (S)-(1-methylpyrrolidin-2-yl)methyl(3′,4′-difluoro-[1,1′-biphenyl]-2-yl)carbamate], 5.34 nM. Consider `CN1CCC[C@H]1COC(=O)Nc1ccccc1-c1cc(F)c(F)cc1F` [Example 163, (S)-(1-methylpyrrolidin-2-yl)methyl (2′,4′,5′-trifluoro-[1,1′-biphenyl]-2-yl)carbamate], for which the Ki is 16.1 nM. As to `CN1CCC[C@H]1COC(=O)Nc1ccccc1-c1ccc(Cl)cc1` [Example 164, (S)-(1-methylpyrrolidin-2-yl)methyl(4′-chloro-[1,1′-biphenyl]-2-yl)carbamate], the Ki is 36.9 nM.

For `CN1CCC[C@H]1COC(=O)Nc1ccccc1-c1ccc(Cl)cc1Cl` [Example 167, (S)-(1-methylpyrrolidin-2-yl)methyl(2′,4′-dichloro-[1,1′-biphenyl]-2-yl)carbamate], the Ki came to 67.3 nM. As for `CN1CCC[C@H]1COC(=O)Nc1ccccc1-c1cccc(O)c1` [Example 168, (S)-(1-methylpyrrolidin-2-yl)methyl(3′-hydroxy-[1,1′-biphenyl]-2-yl)carbamate], the Ki came out at 22.9 nM. Take `CN1CCC[C@H]1COC(=O)Nc1ccccc1-c1cccc(C#N)c1` [Example 169, (S)-(1-methylpyrrolidin-2-yl)methyl(3′-cyano-[1,1′-biphenyl]-2-yl)carbamate]: the Ki turned out to be 282 nM. With `CN1CCC[C@H]1COC(=O)Nc1ccccc1-c1cccc(N)c1` [Example 170, (S)-(1-methylpyrrolidin-2-yl)methyl(3′-amino-[1,1′-biphenyl]-2-yl)carbamate] the figure was 9.23 nM; with `CN1CCC[C@H]1COC(=O)Nc1ccc(F)cc1-c1ccc(F)c(F)c1` [Example 171, (S)-(1-methylpyrrolidin-2-yl)methyl (3′,4′,5-trifluoro-[1,1′-biphenyl]-2-yl)carbamate], 16.9 nM; with `CN1CCC[C@H]1COC(=O)Nc1ccc(F)cc1-c1cc(F)c(F)cc1F` [Example 173, (S)-(1-methylpyrrolidin-2-yl)methyl (2′,4′,5,5′-tetrafluoro-[1,1′-biphenyl]-2-yl)carbamate], 42.7 nM. With `CN1CCC[C@H]1COC(=O)Nc1ccc(F)cc1-c1cccc(Cl)c1` [Example 174, (S)-(1-methylpyrrolidin-2-yl)methyl(3′-chloro-5-fluoro-[1,1′-biphenyl]-2-yl)carbamate] the figure was 0.61 nM. With `CN1CCC[C@H]1COC(=O)Nc1ccc(F)cc1-c1ccc(Cl)cc1` [Example 175, (S)-(1-methylpyrrolidin-2-yl)methyl (4′-chloro-5-fluoro-[1,1′-biphenyl]-2-yl)carbamate] the figure was 22.5 nM; with `CN1CCC[C@H]1COC(=O)Nc1ccc(F)cc1-c1ccc(Cl)cc1Cl` [Example 176, (S)-(1-methylpyrrolidin-2-yl)methyl (2′,4′-dichloro-5-fluoro-[1,1′-biphenyl]-2-yl)carbamate], above 1000 nM. As to `CN1CCC[C@H]1COC(=O)Nc1ccc(F)cc1-c1cccc(C#N)c1` [Example 178, (S)-(1-methylpyrrolidin-2-yl)methyl (3′-cyano-5-fluoro-[1,1′-biphenyl]-2-yl)carbamate], the Ki was above 1000 nM. For the molecule `CN1CCC[C@H]1COC(=O)Nc1ccc(F)cc1-c1cccc(O)c1` [Example 179, (S)-(1-methylpyrrolidin-2-yl)methyl(3′-hydroxy-5-fluoro-[1,1′-biphenyl]-2-yl)carbamate], the inhibition constant Ki turned out to be 241 nM. Consider `CN1CC[C@@H](COC(=O)Nc2cc(F)c(F)cc2-c2cccc(Cl)c2)C1` [Example 182, (R)-(1-methylpyrrolidin-3-yl)methyl (3′-chloro-4,5-difluoro-[1,1′-biphenyl]-2-yl)carbamate], for which the Ki was above 1000 nM. The value for `CN1CCCC1CCOC(=O)Nc1ccccc1-c1cccc(F)c1F` (stereo not shown) [Example 184, 2-(1-Methylpyrrolidin-2-yl)ethyl(2′,3′-difluoro-[1,1′-biphenyl]-2-yl)carbamate] was 63.5 nM; that for `CN1CCCC1CCOC(=O)Nc1ccccc1-c1c(F)cccc1F` (stereo not shown) [Example 185, 2-(1-Methylpyrrolidin-2-yl)ethyl(2′,6′-difluoro-[1,1′-biphenyl]-2-yl)carbamate] was 46.1 nM.

In the case of `CN1CCC[C@H]1COC(=O)Nc1ccccc1-c1cccc(F)c1F` [Example 189, (S)-(1-methylpyrrolidin-2-yl)methyl(2′,3′-difluoro-[1,1′-biphenyl]-2-yl)carbamate], the Ki amounted to 65.6 nM. The value for `Cc1cc(C)cc(-c2ccccc2NC(=O)OC[C@@H]2CCN(C)C2)c1` [Example 191, (R)-(1-methylpyrrolidin-3-yl)-methyl (3′,5′-dimethyl-[1,1′-biphenyl]-2-yl)carbamate] was 30.8 nM; that for `Cc1cc(C)cc(-c2cc(F)ccc2NC(=O)OC[C@@H]2CCN(C)C2)c1` [Example 193, (R)-(1-methylpyrrolidin-3-yl)methyl(5-fluoro-3′,5′-dimethyl-[1,1′-biphenyl]-2-yl)carbamate] was 45.8 nM. In the case of `CN1CCC[C@H]1COC(=O)Nc1ccc(F)cc1-c1ccccc1` [Example 200, (S)-(1-methylpyrrolidin-2-yl)methyl(5-fluoro-[1,1′-biphenyl]-2-yl)carbamate], the inhibition constant (Ki) is 2.03 nM. With `Cc1ccc(NC(=O)OC[C@@H]2CCCN2C)c(-c2ccccc2)c1` [Example 206, (S)-(1-methylpyrrolidin-2-yl)methyl(5-methyl-[1,1′-biphenyl]-2-yl)carbamate] the figure was 7.32 nM; with `Cc1cc(C)cc(-c2cc(F)ccc2NC(=O)OC[C@@H]2CCCN2C)c1` [Example 208, (S)-(1-methylpyrrolidin-2-yl)-methyl(5-fluoro-3′,5′-dimethyl-[1,1′-biphenyl]-2-yl)-carbamate], 110 nM; with `CN1CCC[C@H]1COC(=O)Nc1ccc(F)cc1-c1ccc(C(C)(C)C)cc1` [Example 209, (S)-(1-methylpyrrolidin-2-yl)methyl (4′-(tert-butyl)-5-fluoro-[1,1′-biphenyl]-2-yl)carbamate], above 1000 nM. The value for `CN1CCC[C@H]1COC(=O)Nc1ccc(F)cc1-c1cc(F)cc(Cl)c1` [Example 210, (S)-(1-methylpyrrolidin-2-yl)methyl(3′-chloro-5,5′-difluoro-[1,1′-biphenyl]-2-yl)carbamate] was 4.6 nM; that for `CN1CCC[C@H]1COC(=O)Nc1ccc(F)cc1-c1ccc(Cl)c(F)c1` [Example 212, (S)-(1-methylpyrrolidin-2-yl)methyl(4′-chloro-3′,5-difluoro-[1,1′-biphenyl]-2-yl)carbamate] was above 1000 nM.

Regarding `CN1CCC[C@H]1COC(=O)Nc1ccc(F)cc1-c1cccc(N)c1` [Example 213, (S)-(1-methylpyrrolidin-2-yl)methyl (3′-amino-5-fluoro-[1,1′-biphenyl]-2-yl)carbamate], the Ki was 53 nM.
